Publication PMC6987146, “Potent inhibition of HIV replication in primary human cells by novel synthetic polyketides inspired by Aureothin” (Scientific Reports, 2020)
pIC50: −log10 of the molar value.

What was measured:
HIV-1MMVP899-87 = test: Inhibition of clinical isolate HIV-1M MVP899-87 in PBMCs; format: cell-based; details: PBMC
Description: Clinical isolates represented the following HIV genotypes: HIV-1MMVP899-87: HIV-type 1, Major group; HIV-1OMVP5180-91: HIV-type 1, Outlier group; HIV-2MVP10668-93: HIV-type 2; HIV-1V13-03413B: HIV-type 1, Major group/B-clade, isolate with multiple drug-resistance mutations. Depicted are the means of three independent experiments with biological triplicates (n = 3; m = 3) and standard deviations (SD).
Isolation of primary clinical HIV-isolates HIV-1MMVP899-87, HIV-1OMVP5180-91, HIV-1V13-03413B and HIV-2MVP10668-93 is described in[43]. The HIV-1 M group/B-clade isolate (HIV-1V13-03413B) was isolated from a patient with virological treatment failure. Clinical isolates were produced from HIV infected H9 cells as described.
To evaluate anti-HIV efficacies of test compounds in primary human target cells, stimulated PBMCs were seeded in 96-well plates at a density of 500,000 cells per well, different #7concentrations of the compound (serial dilutions) and virus inoculum (MOI of 0.5) added to the PBMCs and cultures incubated for 48 h. Infectious virus production was quantified by transferring 35 µl of supernatant from the PBMC cultures to LC5-RIC cells, seeded in black 96-well plates one day earlier. LC5-RIC cultures were then incubated for 72 h and analysed for DsRed1 reporter expression and anti-HIV activity calculated as described for the EASY-HIT assay.

[1] = test system: HIV Gag protein (Gag-p24); test: Intracellular Gag by p24 ELISA and western blot in LC5-RIC cells; format: cell-based; details: HIV-1LAI, 48 h
Protocol: LC5-RIC cells were plated, treated with compounds and inoculated with virus as described for Alu-PCR above. Cells were harvested, washed with PBS and incubated in 200 µl of PBS + 5% Triton X-100 for 5 min at room temperature. Cell lysates were centrifuged for 5 min at 400 g, supernatants collected, diluted 1:10,000 and Gag-p24 was detected by p24 Antigen Capture Assay (ABLinc) according to the manufacturer’s protocol.
Western blot analysis for Gag-p24 and GAPDH was performed as described in[48], using the primary antibodies anti-hGAPDH (ThermoFisher Scientific) and anti-HIV-p24 (Calbiochem) as well as the secondary anti-mouse-peroxidase antibody (Jackson ImmunoResearch), all diluted 1:10,000. Bands were visualized by enhanced chemiluminescence and detected by Fusion FX Chemiluminescence detector. Resulting blot images were processed with Fusion FX Software (adjusting brightness and contrast) and Microsoft PowerPoint (labelling and cropping).

PBMC proteome = test: Proteomics (LC-MSMS) of PBMCs treated with compound #7, with or without HIV exposure; format: cell-based, human; details: PBMCs from three donors; ≥2-fold change
Protocol: Stimulated PBMCs or CD4+ cells (5,000,000 cells) were seeded into 12-well plates before compound treatment and inoculation with HIV-1LAI at an MOI of 0.5, followed by 48 h incubation at 37 °C, 5% CO2. HIV inhibition was confirmed by quantifying infectious virus production in LC5-RIC cells as described above. Protein lysates were prepared from cells harvested, washed with PBS and lysed by incubating the cells for 10 min at 4 °C in lysis buffer (100 mM Tris-HCl pH 8.3, 150 mM NaCl, 1% glycerol, 1% NP-40, 0.5% deoxycholate, 0.1% SDS, 0.1% Triton-X100) and centrifuged for 20 min at 4 °C, 16,000 g to clear protein lysates. Protein concentrations were determined by using the Pierce^TM BCA Protein Assay Kit (ThermoFisher Scientific) according to manufacturer’s protocol. The proteomes of PBMCs from three different donors were analysed by LC-MSMS and data enrichment analysis was carried out using GeneRanker (Intrexon). For detailed information see Supplementary Methods.
After measuring the protein concentration of the cell lysates equal total protein amounts (10 µg per sample) were proteolysed with trypsin as described ^4 by a modified filter-aided sample preparation (FASP) procedure ^5.
Data analysis. The results from three donors were regarded as biological replicates. […]

[2] = biological target: T1, recombinant HIV-1 reverse transcriptase (Human immunodeficiency virus type 1 group M subtype B, UniProt P04585); test: HIV Reverse Transcriptase Activity Assay (colorimetric kit); format: biochemical; details: 10 µM
T1 construct: using 4 ng recombinant HIV-1 reverse transcriptase; purchased Roche
Protocol: HIV Reverse Transcriptase Activity Assay. To determine the inhibitory effect of test compounds against HIV reverse transcriptase activity, the colorimetric Reverse Transcriptase Assay Kit (Roche) was performed according to manufacturer’s protocol using 4 ng recombinant HIV-1 reverse transcriptase. Efavirenz was used as reference compound.

[3] = biological target: T2, recombinant HIV-1 Protease (Human immunodeficiency virus type 1 group M subtype B, UniProt P04585); test: HIV Protease Activity Assay (fluorogenic substrate); format: biochemical; details: 10 µM
T2 construct: 100 ng recombinant HIV-1 Protease protein (Abcam) was incubated with compounds; purchased Abcam
Protocol: HIV Protease Activity Assay. 100 ng recombinant HIV-1 Protease protein (Abcam) was incubated with compounds diluted in HIV Protease Activity Assay Buffer (0.1 M sodium acetate, 1.0 M sodium chloride, 1.0 mM ethylenediaminetetraacetic acid (EDTA), 1.0 mM dithiothreitol (DTT), 10% dimethyl sulfoxide (DMSO), 1 mg/ml bovine serum albumin (BSA), pH 7.4) for 1 h at room temperature in the dark. After the designated incubation time the mixtures were added to a 2.5 µM solution of HIV Protease Substrate 1 (Sigma-Aldrich) in HIV Protease Activity Assay Buffer prepared in black 96-well plates. The substrate harbours the fluorophore EDANS (5-(2-aminoethylamino)-1-naphthalene sulfonate) and the acceptor chromophore DABCYL (4’-dimethylaminoazobenzene-4-carboxylate) on opposite sides of the cleavage site (Tyr-Pro). Cleavage of the substrate by the HIV-1 protease results in separation of DABCYL and EDANS, eliminating the quenching effects on EDANS fluorescence at 490 nm. After an additional incubation time of 20 min at 37 °C the increase in fluorescence was measured using a fluorescence microplate reader at an excitation filter wavelength of 340 nm and an emission filter wavelength of 490 nm. Saquinavir was used as reference compound.

SMILES: COc1oc(C2C/C(=C/C(C)=C/c3ccc(C(F)(F)F)cc3)CO2)c(C)c(=O)c1C (stereo not drawn) [compound #7]
- pIC50 (HIV-1MMVP899-87; read-out: IC50 value, HIV-1M MVP899-87, HIV-type 1, Major group): 8.39
- IC90 (HIV-1MMVP899-87; read-out: IC90 value, HIV-1M MVP899-87, HIV-type 1, Major group): 12.3 nM
- intracellular Gag levels [1]: strongly suppressed production of Gag
- proportion of differentially expressed proteins (of total proteins detected) (PBMC proteome): < 10%
- inhibitory effect on Reverse transcriptase activity [2]: no inhibitory effects
- inhibitory effect on Protease activity [3]: no inhibitory effects
